Laboratory results as given in US5393751A, “Tricyclic carbapenem compounds” (Takeda Chemical Industries, Ltd., priority 1989, dated 1995).

Columns and labels:
Test in all cases: MIC by agar dilution method
Type in all cases: cell-based
E. cloacae IFO 12937 = conditions: Enterobacter cloacae, IFO12937, 24 h, 10^8 CFU/ml, 37° C. overnight
Procedure: (§1) The minimal inhibitory concentrations [MIC (μg/ml)] of a representative compound of the invention were determined by the following method.
(§2) Method for MIC determination
(§3) The MIC values of the test compound were determined by the agar dilution method. Thus, 1.0 ml aliquots of serial aqueous dilutions of the test compound were put in petri dishes and 9.0 ml aliquots of Trypticase Soy Agar were added and mixed. Those agar plates were respectively smeared with a suspension (about 10^8 CFU/ml) of the test organism and incubated at 37° C. overnight.

C. freundii IFO 12681 = conditions: Citrobacter freundii, IFO12681, 24 h, 10^8 CFU/ml, 37° C. overnight
Procedure: as §1, §2, §3

S. aureus 308A-1 = conditions: Staphylococcus aureus, 308A1, 24 h, 10^8 CFU/ml, 37° C. overnight
Procedure: as §1, §2, §3

S. pyogenes S-8 = conditions: Streptococcus pyogenes, S8, 24 h, 10^8 CFU/ml, 37° C. overnight
Procedure: as §1, §2, §3

S. pneumoniae Type I = conditions: Streptococcus pneumoniae, 24 h, 10^8 CFU/ml, 37° C. overnight
Procedure: as §1, §2, §3

E. coli NIHJ JC-2 = conditions: Escherichia coli, NIHJJC2, 24 h, 10^8 CFU/ml, 37° C. overnight
Procedure: as §1, §2, §3

K. oxytoca TN 1711 = conditions: Klebsiella oxytoca, TN1711, 24 h, 10^8 CFU/ml, 37° C. overnight
Procedure: as §1, §2, §3

C. diphtheriae Tronto = conditions: Corynebacterium diphtheriae, 24 h
Procedure: as §1, §2, §3

S. pyogenes E-14 = conditions: Streptococcus pyogenes, E14, 24 h, 10^8 CFU/ml, 37° C. overnight
Procedure: as §1, §2, §3

P. vulgaris IFO 3988 = conditions: Proteus vulgaris, IFO3988, 24 h, 10^8 CFU/ml, 37° C. overnight
Procedure: as §1, §2, §3

M. morganii IFO 3168 = conditions: Morganella morganii, IFO3168, 24 h, 10^8 CFU/ml, 37° C. overnight
Procedure: as §1, §2, §3

S. aureus 1840 = conditions: Staphylococcus aureus, 24 h, 10^8 CFU/ml, 37° C. overnight
Procedure: as §1, §2, §3

P. mirabilis IFO 3849 = conditions: Proteus mirabilis, IFO3849, 24 h, 10^8 CFU/ml, 37° C. overnight
Procedure: as §1, §2, §3

E. coli NIHJ O-111 = conditions: Escherichia coli, NIHJO111, 24 h, 10^8 CFU/ml, 37° C. overnight
Procedure: as §1, §2, §3

E. cloacae TN 583 = conditions: Enterobacter cloacae, TN583, 24 h, 10^8 CFU/ml, 37° C. overnight
Procedure: as §1, §2, §3

E. coli NIHJ T-7 = conditions: Escherichia coli, NIHJT7, 24 h, 10^8 CFU/ml, 37° C. overnight
Procedure: as §1, §2, §3

S. aureus FDA 209P = conditions: Staphylococcus aureus, FDA209P, 24 h, 10^8 CFU/ml, 37° C. overnight
Procedure: as §1, §2, §3

C. freundii TN 474 = conditions: Citrobacter freundii, TN474, 24 h, 10^8 CFU/ml, 37° C. overnight
Procedure: as §1, §2, §3

S. marcescens IFO 12648 = conditions: Serratia marcescens, IFO12648, 24 h, 10^8 CFU/ml, 37° C. overnight
Procedure: as §1, §2, §3

K. pneumoniae DT = conditions: Klebsiella pneumoniae, 24 h, 10^8 CFU/ml, 37° C. overnight
Procedure: as §1, §2, §3

S. mitis America = conditions: Streptococcus mitis, 24 h, 10^8 CFU/ml, 37° C. overnight
Procedure: as §1, §2, §3

C[C@@H](O)[C@H]1C(=O)N2C(C(=O)[O-])=C3SCCCC3[C@H]12.[Na+] (mixture of isomers) [Example 3, Sodium (5S,6S,7RS)-5-[(R)-1-hydroxyethyl]-4-oxo-3-aza-11-thiatricyclo[5.4.0.0^3,6]undec-1-ene-2-carboxylate]
MIC (E. cloacae IFO 12937): 0.78 µg/mL | MIC (C. freundii IFO 12681): 0.39 µg/mL | MIC (S. aureus 308A-1): 0.78 µg/mL | MIC (S. pyogenes S-8): 0.2 µg/mL | MIC (S. pneumoniae Type I): 0.39 µg/mL | MIC (E. coli NIHJ JC-2): 0.2 µg/mL | MIC (K. oxytoca TN 1711): 0.39 µg/mL | MIC (C. diphtheriae Tronto): < 0.1 µg/mL | MIC (S. pyogenes E-14): 0.78 µg/mL | MIC (P. vulgaris IFO 3988): 3.13 µg/mL | MIC (M. morganii IFO 3168): 3.13 µg/mL | MIC (S. aureus 1840): 1.56 µg/mL | MIC (P. mirabilis IFO 3849): 1.56 µg/mL | MIC (E. coli NIHJ O-111): 0.2 µg/mL | MIC (E. cloacae TN 583): 0.78 µg/mL | MIC (E. coli NIHJ T-7): 0.2 µg/mL | MIC (S. aureus FDA 209P): 0.78 µg/mL | MIC (C. freundii TN 474): 1.56 µg/mL | MIC (S. marcescens IFO 12648): 1.56 µg/mL | MIC (K. pneumoniae DT): 0.39 µg/mL | MIC (S. mitis America): 0.78 µg/mL
